The text below walks through data of US10028971B2, “Compositions and methods for treating psychiatric disorders” (GOSFORTH CENTRE (HOLDINGS) PTY LTD., priority 2008, dated 2018).

Where a name gives a salt, the structure may show the parent alone.

In the first test the test system is individuals with developmental dyspraxia / poor coordination. The experiment in a line: Treatment of developmental dyspraxia, clinical observation. It is filed as in vivo, human. The note with it: person, ADHD; dexamphetamine 25 mg daily augmented with atomexetine 60 mg and sodium valproate 150 mg. The text has this:
Many of the individuals treated at this clinic, with a diagnosis of ADHD and/or pervasive development disorder such Asperger's Syndrome or autism also present with symptoms consistent with a diagnosis of a developmental coordination disorder. They are often described as ‘unco’ (unco-ordinated) by their peers and experience victimization, poor self-esteem and frustration as a consequence of their poor coordination. […] Individuals have described a sense of having more time to coordinate movements and to understand and integrate their own activity appropriately within a team sport such as soccer, which has previously eluded them. Individuals have felt frustration at being able to practise repeatedly an activity or skill only to be unable to put it into practice when required, within the play of a match. It is proposed that individuals were previously unable to process and plan their own coordination but remain aware of the general activity in which they were participating.
For the molecule `CNCC[C@@H](Oc1ccccc1C)c1ccccc1` [atomexetine, (3R)—N-methyl-3-(2-methylphenoxy)-3-phenyl-propan-1-amine], the “clinical outcome (case)” value was “Significant improvement in psychosocial functioning”.

The next test relates to adults with ADHD.
Assay: not given
The following applies: person, ADHD; 37.5 mg oxycarbamazepine added to dexamphetamine 40 mg and 'sodium to operate' 400 mg daily. The method, then: In the clinical setting a number of adults with ADHD experienced a combination therapy of stimulant medication (dexamphetamine) in combination with sodium valproate (VPA). The initial dosages used were from 15 to 70 mg/day of dexamphetamine and from 100 to 700 mg/day of VPA (Epilim) (=approximately 2 to 10 mg/kg/day).
The determination of the dose for the dexamphetamine was undertaken in a clinical sensitive open label manner. The dose was titrated upwards dependent on the clinical response and the freedom from side-effects. The dose range was between 15 and 70 mg a day. The frequency of the dosing also varied dependent upon the clinical response. The usual dose interval was between two to four hours. This dosing adjustment took place prior to the commencement of the sodium valproate. The sodium valproate medication was initiated once a day at 50 mg tablet or elixir and titrated upwards dependent on response, but not more than one increase every three days. The dose was given as a once or twice a day regime. During the titration phase, if clinically possible, no other adjustments to the pharmacotherapy were undertaken.
Regarding `NC(=O)N1c2ccccc2CC(=O)c2ccccc21` [Oxcarbazepine], the “clinical outcome (case)” value was “significant improvement in their cognitive functioning”.

The test is the same for the next values; noted with them: person; oxycarbamazepine dose increased to 75 mg.
As to `NC(=O)N1c2ccccc2CC(=O)c2ccccc21` [Oxcarbazepine], the “clinical outcome (case)” value is reported as “improved again”.

The same test, now with this note: person; switched to carbamazepine.
On to `NC(=O)N1c2ccccc2C=Cc2ccccc21` [Carbamazepine], for which the “clinical outcome (case), compared with oxycarbamazepine” value is “less effective”.

Another test relates to mood stabilisation or epileptic symptoms or events.
Assay: not given
The note with it: in vivo; cited from earlier work.
As to `NC(=O)N1c2ccccc2C=Cc2ccccc21` [Carbamazepine], the “typical dose for treating epileptic seizures” value was 400 to 800 mg/day.

Still in this test, the particulars now being: usual minimum anti-convulsant dose per day; cited from earlier work.
As to `CCC1(c2ccc(N)cc2)CCC(=O)NC1=O` (stereo not shown) [Aminoglutethimide], the “Minimum Dose/day effective for mood stabilisation or treatment of epileptic symptoms or events” value (shortened to “Minimum Dose/day effective”) is on record as 125 mg. For the molecule `CCC1(c2ccccc2)C(=O)NC(=O)NC1=O.CNC(C)CC1CCCCC1` [Barbexaclone], the “Minimum Dose/day effective” value is 200 mg in divided doses. Take `CCC[C@@H]1CC(=O)N([C@@H](CC)C(N)=O)C1` [Brivaracetam]: the “Minimum Dose/day effective” value was 100 mg. `NC(=O)N1c2ccccc2C=Cc2ccccc21` [Carbamazepine]: the “Minimum Dose/day effective” value is given as 400 mg.

`O=C1CN=C(c2ccccc2Cl)c2cc([N+](=O)[O-])ccc2N1` [Clonazepam]: the “Minimum Dose/day effective” value is 1 mg.

Turning to `CCN1C(=O)OC(C)(C)C1=O` [Ethadione], the “Minimum Dose/day effective” value was 1000 mg. Turning to `CCC1(C)CC(=O)NC1=O` (stereo not shown) [Ethosuximide], the “Minimum Dose/day effective” value is recorded as 1000 mg. On to `CCN1C(=O)NC(c2ccccc2)C1=O` (stereo not shown) [Ethotoin], for which the “Minimum Dose/day effective” value is listed as 1000 mg. Take `NC(=O)OCC(COC(N)=O)c1ccccc1` [Felbamate]: the “Minimum Dose/day effective” value is given as 1200 mg. Turning to `O=C1NC(c2ccccc2)(c2ccccc2)C(=O)N1COP(=O)(O)O` [Fosphenytoin Sodium], the “Minimum Dose/day effective” value is given as 10 mg/kg. For `NCC1(CC(=O)O)CCCCC1` [Gabapentin, 2-[1-(aminomethyl)cyclohexyl]acetic acid], the “Minimum Dose/day effective” value was 900 mg. For the molecule `COC[C@@H](NC(C)=O)C(=O)NCc1ccccc1` [Lacosamide], the “Minimum Dose/day effective” value was 200 mg. As for `Nc1nnc(-c2cccc(Cl)c2Cl)c(N)n1` [Lamotrigine, 3,5-diamino-6-(2,3-dichlorophenyl)-1,2,4-triazine], the “Minimum Dose/day effective” value is 100 mg.

As to `CC[C@@H](C(N)=O)N1CCCC1=O` [Levetiracetam], the “Minimum Dose/day effective” value is 1000 mg.

With `COC1=CC(=O)OC1C(O)c1ccccc1Cl` (stereo not shown) [Losigamone], the “Minimum Dose/day effective” value is 1500 mg. Consider `CCC1(c2ccccc2)NC(=O)N(C)C1=O` (stereo not shown) [Mephenytoin], for which the “Minimum Dose/day effective” value is 200 mg.

`CCC1(c2ccccc2)NC(=O)N(C)C1=O` (stereo not shown) [Methoin]: the “Minimum Dose/day effective” value is on record as 1000 mg.

With `CN1C(=O)CC(C)(c2ccccc2)C1=O` (stereo not shown) [Methsuximide], the “Minimum Dose/day effective” value is reported as 300 mg.

For `NC(=O)N1c2ccccc2CC(=O)c2ccccc21` [Oxcarbazepine], the “Minimum Dose/day effective” value is listed as 600 mg. Take `CCC1(C)OC(=O)N(C)C1=O` (stereo not shown) [Paramethadione]: the “Minimum Dose/day effective” value is reported as 300 mg. In the case of `N#Cc1ccccc1-c1cc(-c2ccccn2)cn(-c2ccccc2)c1=O` [Perampanel], the “Minimum Dose/day effective” value was 2 mg. Consider `NC(=O)NC(=O)Cc1ccccc1` [Phenacemide], for which the “Minimum Dose/day effective” value is reported as 500 mg. On to `CCC(C(=O)NC(N)=O)c1ccccc1` (stereo not shown) [Pheneturide], for which the “Minimum Dose/day effective” value is listed as 600 mg. On to `CN1C(=O)CC(c2ccccc2)C1=O` (stereo not shown) [Phensuximide], for which the “Minimum Dose/day effective” value is 1000 mg. As to `CC(C)C[C@H](CN)CC(=O)O` [Pregabalin, (S)-3-(aminomethyl)-5-methylhexanoic acid], the “Minimum Dose/day effective” value was 300 mg. As to `CCC1(c2ccccc2)C(=O)NCNC1=O` [Primidone], the “Minimum Dose/day effective” value is listed as 750 mg. For the molecule `NS(=O)(=O)c1ccc(N2CCCCS2(=O)=O)cc1` [Sultiame], the “Minimum Dose/day effective” value was 200 mg. On to `Cc1ccsc1C(=CCCN1CCC[C@@H](C(=O)O)C1)c1sccc1C` [Tiagabine Hydrochloride], for which the “Minimum Dose/day effective” value is 30 mg.

`CN1C(=O)OC(C)(C)C1=O` [Trimethadione]: the “Minimum Dose/day effective” value is 900 mg. Regarding `C=CC(N)CCC(=O)O` (stereo not shown) [Vigabatrin], the “Minimum Dose/day effective” value is 1000 mg. On to `NS(=O)(=O)Cc1noc2ccccc12` [Zonisamide], for which the “Minimum Dose/day effective” value is given as 200 mg.

The same test, now with this note: usual minimum anti-convulsant dose; cited from earlier work.
In the case of `CN1C(=O)CC(=O)N(c2ccccc2)c2cc(Cl)ccc21` [Clobazam], the “Minimum Dose/day effective” value was 5 mg/kg daily.
